Target: Tyrosine-protein kinase BTK (Homo sapiens, UniProt Q06187)
Assay: Inhibition of human BTK-A using phosphorylated substrate in presence of ATP by microplate reader assay

Sequence of Tyrosine-protein kinase BTK (Q06187 whole entry): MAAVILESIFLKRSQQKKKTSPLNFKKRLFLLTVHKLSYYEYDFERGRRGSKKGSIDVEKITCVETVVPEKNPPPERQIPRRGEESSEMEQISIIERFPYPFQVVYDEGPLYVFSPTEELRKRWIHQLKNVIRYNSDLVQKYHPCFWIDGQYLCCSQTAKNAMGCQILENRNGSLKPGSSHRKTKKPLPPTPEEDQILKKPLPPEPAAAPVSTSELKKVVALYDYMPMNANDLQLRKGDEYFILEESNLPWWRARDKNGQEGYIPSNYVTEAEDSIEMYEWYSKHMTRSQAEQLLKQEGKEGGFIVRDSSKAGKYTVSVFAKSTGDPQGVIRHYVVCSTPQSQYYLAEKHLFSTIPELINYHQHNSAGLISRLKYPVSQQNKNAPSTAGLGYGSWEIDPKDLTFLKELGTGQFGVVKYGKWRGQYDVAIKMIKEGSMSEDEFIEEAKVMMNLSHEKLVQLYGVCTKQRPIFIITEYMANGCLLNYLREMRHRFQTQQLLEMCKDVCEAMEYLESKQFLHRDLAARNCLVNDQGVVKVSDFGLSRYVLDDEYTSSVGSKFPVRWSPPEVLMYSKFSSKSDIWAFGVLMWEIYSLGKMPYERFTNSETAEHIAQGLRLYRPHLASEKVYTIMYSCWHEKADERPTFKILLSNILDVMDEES

IC50: 0.71 nM
Structure (SMILES): CC(=O)N1CC=C(c2cc3c(-c4cccc(-n5ccc6cc(C7CC7)cc(F)c6c5=O)c4CO)nc(N)nc3[nH]2)CC1

— ChEMBL document CHEMBL5053510, “Discovery of AS-1763: A Potent, Selective, Noncovalent, and Orally Available Inhibitor of Bruton's Tyrosine Kinase” (J Med Chem, 2021)
